Data: patent US20250002507A1, “7,8-DIHYDRO-5H-1,6-NAPHTHYRIDINE DERIVATIVES AS POSITIVE ALLOSTERIC MODULATORS OF THE MUSCARINIC ACETYLCHOLINE RECEPTOR M4 FOR TREATING NEUROLOGICAL AND PSYCHIATRIC DISORDERS” (Vanderbilt University, priority 2021, published 2025)

Molecular target: T1, Human M4 (Homo sapiens, UniProt P08173)
T1 construct: expressed in transfected cells
T1 sequence (P08173 1-479): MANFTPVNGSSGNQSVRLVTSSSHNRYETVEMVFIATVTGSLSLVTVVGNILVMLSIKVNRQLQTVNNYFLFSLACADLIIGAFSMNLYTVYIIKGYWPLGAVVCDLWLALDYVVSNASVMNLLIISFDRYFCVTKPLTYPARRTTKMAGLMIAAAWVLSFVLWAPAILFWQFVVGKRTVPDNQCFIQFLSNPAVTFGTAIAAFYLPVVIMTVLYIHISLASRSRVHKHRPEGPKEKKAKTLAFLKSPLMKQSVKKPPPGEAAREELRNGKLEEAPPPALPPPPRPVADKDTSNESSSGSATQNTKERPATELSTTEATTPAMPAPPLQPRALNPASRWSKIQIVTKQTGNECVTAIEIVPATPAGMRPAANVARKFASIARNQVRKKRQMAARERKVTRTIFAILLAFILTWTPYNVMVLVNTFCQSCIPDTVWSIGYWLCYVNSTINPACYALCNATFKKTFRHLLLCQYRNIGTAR
Test: mAChR M4 cell-based functional assay (calcium flux, potentiation of EC20 acetylcholine response), hM4-Gqi5 CHO-K1 cells
Details: for Emax / Emax at 30 µM: CHO-K1; for EC50: hM4-Gqi5 CHO-K1 cells, calcium flux, PAM of EC20 acetylcholine, read-out: Human M4 EC50; for Emax at 30 µM: % ACh maximum at 30 μM, human M4, read-out: Emax
Protocol: Human and rat M4 cDNAs, along with the chimeric G protein Gqi5, were transfected into Chinese hamster ovary (CHO-K1) cells purchased from the American Type Culture Collection using Lipofectamine2000. hM4-Gqi5 cells were grown in Ham's F-12 medium containing 10% heat-inactivated fetal bovine serum (FBS), 20 mM HEPES, 50 μg/mL G418 sulfate, and 500 μg/mL Hygromycin B. rM4-Gqi5 cells were grown in DMEM containing 10% heat-inactivated FBS, 20 mM HEPES, 400 μg/mL G418 sulfate, and 500 μg/mL Hygromycin B.
For high throughput measurement of agonist-evoked increases in intracellular calcium, CHO-K1 cells stably expressing muscarinic receptors were plated in growth medium lacking G418 and hygromycin at 15,000 cells/20 μL/well in Greiner 384-well black-walled, tissue culture (TC)-treated, clear-bottom plates (VWR). Cells were incubated overnight at 37° C. and 5% CO2. The next day, cells were washed using an ELX 405 (BioTek) with assay buffer; the final volume was then aspirated to 20 μL. Next, 20 μL of a 2.3 μM stock of Fluo-4/acetoxymethyl ester (Invitrogen, Carlsbad, CA), prepared as a 2.3 mM stock in DMSO and mixed in a 1:1 ratio with 10% (w/v) Pluronic F-127 and diluted in assay buffer, was added to the wells and the cell plates were incubated for 50 min at 37° C. and 5% CO2. Dye was removed by washing with the ELX 405 and the final volume was aspirated to 20 μL. Compound master plates were formatted in an 11 point concentration-response curve (CRC) format (1:3 dilutions) in 100% DMSO with a starting concentration of 10 mM using a BRAVO liquid handler (Agilent). Test compound CRCs were then transferred to daughter plates (240 nL) using the Echo acoustic plate reformatter (Labcyte, Sunnyvale, CA) and then diluted into assay buffer (40 μL) to a 2× stock using a Thermo Fisher Combi (Thermo Fisher Scientific, Waltham, MA).
Calcium flux was measured using the Functional Drug Screening System (FDSS) 6000 or 7000 (Hamamatsu Corporation, Tokyo, Japan) as an increase in the fluorescent static ratio. Compounds were applied to cells (20 μL, 2×) using the automated system of the FDSS at 2-4 seconds into the protocol and the data were collected at 1 Hz. At 144 seconds, 10 μL of an EC20 concentration of the muscarinic receptor agonist acetylcholine was added (5×), followed by the addition of 12 μL of an EC80 concentration of acetylcholine at the 230 second time point (5×). Agonist activity was analyzed as a concentration-dependent increase in calcium mobilization upon compound addition. Positive allosteric modulator activity was analyzed as a concentration-dependent increase in the EC20 acetylcholine response. Antagonist activity was analyzed as a concentration-dependent decrease in the EC80 acetylcholine response. Concentration-response curves were generated using a four-parameter logistical equation in XLFit curve fitting software (IDBS, Bridgewater, NJ) for Excel (Microsoft, Redmond, WA) or Prism (GraphPad Software, Inc., San Diego, CA).
Compounds were synthesized as described above. Activity (EC50 and Emax) was determined in the mAChR M4 cell-based functional assay as described above and the data are shown in Tables 2-4. The compound number corresponds to the compound numbers used in Table 1.

SMILES | Emax | EC50 | Emax at 30 µM
Cc1c(N2CCc3ncccc3C2)nn2cnnc2c1C [Compound 1, 6-(7,8-dimethyl-[1,2,4]triazolo[4,3-b]pyridazin-6-yl)-7,8-dihydro-5H-1,6-naphthyridine] | 97% | 3970 nM | 
Cc1c(N2CCc3ncc(-c4ccn(C)n4)cc3C2)nn2cnnc2c1C [Compound 2, 6-(7,8-dimethyl-[1,2,4]triazolo[4,3-b]pyridazin-6-yl)-3-(1-methylpyrazol-3-yl)-7,8-dihydro-5H-1,6-naphthyridine] |  | 628 nM | 102%
Cc1c(N2CCc3ncc(C#N)cc3C2)nn2cnnc2c1C [Compound 3, 6-(7,8-Dimethyl-[1,2,4]triazolo[4,3-b]pyridazin-6-yl)-7,8-dihydro-5H-1,6-naphthyridine-3-carbonitrile] | 69% | 4510 nM | 
Cc1c(N2CCc3ncc(Oc4ccc(F)cc4)cc3C2)nn2cnnc2c1C [Compound 4, 6-(7,8-dimethyl-[1,2,4]triazolo[4,3-b]pyridazin-6-yl)-3-(4-fluorophenoxy)-7,8-dihydro-5H-1,6-naphthyridine] |  | 322 nM | 87%
Cc1cnc2c(c1)CN(c1nn3cnnc3c(C)c1C)CC2 [Compound 5, 6-(7,8-Dimethyl-[1,2,4]triazolo[4,3-b]pyridazin-6-yl)-3-methyl-7,8-dihydro-5H-1,6-naphthyridine] | 95% | 230 nM | 
Cc1c(N2CCc3ncc(Oc4ccc(OC(F)(F)F)c(F)c4)cc3C2)nn2cnnc2c1C [Compound 6, 6-(7,8-dimethyl-[1,2,4]triazolo[4,3-b]pyridazin-6-yl)-3-[3-fluoro-4-(trifluoromethoxy)phenoxy]-7,8-dihydro-5H-1,6-naphthyridine] |  | 3620 nM | 33%
Cc1c(N2CCc3ncc(Oc4ccc5c(c4)OCCO5)cc3C2)nn2cnnc2c1C [Compound 7, 3-(2,3-dihydro-1,4-benzodioxin-6-yloxy)-6-(7,8-dimethyl-[1,2,4]triazolo[4,3-b]pyridazin-6-yl)-7,8-dihydro-5H-1,6-naphthyridine] |  | 295 nM | 63%
Cc1c(N2CCc3ncc(Oc4ccc5c(cnn5C)c4)cc3C2)nn2cnnc2c1C [Compound 8, 6-(7,8-dimethyl-[1,2,4]triazolo[4,3-b]pyridazin-6-yl)-3-(1-methylindazol-5-yl)oxy-7,8-dihydro-5H-1,6-naphthyridine] |  | 200 nM | 68%
Cc1c(N2CCc3ncc(-c4cncs4)cc3C2)nn2cnnc2c1C [Compound 9, 5-[6-(7,8-dimethyl-[1,2,4]triazolo[4,3-b]pyridazin-6-yl)-7,8-dihydro-5H-1,6-naphthyridin-3-yl]thiazole] |  | 94.3 nM | 79%
Cc1noc(C)c1-c1cnc2c(c1)CN(c1nn3cnnc3c(C)c1C)CC2 [Compound 10, 4-[6-(7,8-dimethyl-[1,2,4]triazolo[4,3-b]pyridazin-6-yl)-7,8-dihydro-5H-1,6-naphthyridin-3-yl]-3,5-dimethyl-isoxazole] |  | 212 nM | 78%
COc1ccc(Oc2cnc3c(c2)CN(c2nn4cnnc4c(C)c2C)CC3)cc1Cl [Compound 11, 3-(3-chloro-4-methoxy-phenoxy)-6-(7,8-dimethyl-[1,2,4]triazolo[4,3-b]pyridazin-6-yl)-7,8-dihydro-5H-1,6-naphthyridine] |  | 1040 nM | 57%
COc1ccc(Oc2cnc3c(c2)CN(c2nn4cnnc4c(C)c2C)CC3)cc1 [Compound 12, 6-(7,8-Dimethyl-[1,2,4]triazolo[4,3-b]pyridazin-6-yl)-3-(4-methoxyphenoxy)-7,8-dihydro-5H-1,6-naphthyridine] |  | 191 nM | 76%
Cc1c(N2CCc3ncc(-c4ccnn4C(C)C)cc3C2)nn2cnnc2c1C [Compound 13, 6-(7,8-Dimethyl-[1,2,4]triazolo[4,3-b]pyridazin-6-yl)-3-(2-isopropylpyrazol-3-yl)-7,8-dihydro-5H-1,6-naphthyridine] | 62% | 285 nM | 
Cc1c(N2CCc3ncc(NC(=O)C4CC4)cc3C2)nn2cnnc2c1C [Compound 14, N-[6-(7,8-dimethyl-[1,2,4]triazolo[4,3-b]pyridazin-6-yl)-7,8-dihydro-5H-1,6-naphthyridin-3-yl]cyclopropanecarboxamide] |  | 1150 nM | 76%
Cc1c(N2CCc3ncc(NC(=O)C4COC4)cc3C2)nn2cnnc2c1C [Compound 15, N-[6-(7,8-Dimethyl-[1,2,4]triazolo[4,3-b]pyridazin-6-yl)-7,8-dihydro-5H-1,6-naphthyridin-3-yl]oxetane-3-carboxamide] | 68% | 5870 nM | 
Cc1c(N2CCc3ncc(N4CCCCC4)cc3C2)nn2cnnc2c1C [Compound 16, 6-(7,8-dimethyl-[1,2,4]triazolo[4,3-b]pyridazin-6-yl)-3-(1-piperidyl)-7,8-dihydro-5H-1,6-naphthyridine] |  | 789 nM | 89%
Cc1c(N2CCc3ncc(NCc4ccc(C(C)(C)O)cc4)cc3C2)nn2cnnc2c1C [Compound 17, 2-[4-[[[6-(7,8-dimethyl-[1,2,4]triazolo[4,3-b]pyridazin-6-yl)-7,8-dihydro-5H-1,6-naphthyridin-3-yl]amino]methyl]phenyl]propan-2-ol] |  | 936 nM | 66%
Cc1c(N2CCc3ncc(NCc4cccc(F)c4)cc3C2)nn2cnnc2c1C [Compound 18, 6-(7,8-dimethyl-[1,2,4]triazolo[4,3-b]pyridazin-6-yl)-N-[(3-fluorophenyl)methyl]-7,8-dihydro-5H-1,6-naphthyridin-3-amine] |  | 798 nM | 47%
Cc1c(N2CCc3ncc(-c4ccns4)cc3C2)nn2cnnc2c1C [Compound 19, 5-[6-(7,8-dimethyl-[1,2,4]triazolo[4,3-b]pyridazin-6-yl)-7,8-dihydro-5H-1,6-naphthyridin-3-yl]isothiazole] |  | 49.3 nM | 106%
Cc1c(N2CCc3ncc(-c4cnn(C5CCCCC5)c4)cc3C2)nn2cnnc2c1C [Compound 20, 3-(1-cyclohexylpyrazol-4-yl)-6-(7,8-dimethyl-[1,2,4]triazolo[4,3-b]pyridazin-6-yl)-7,8-dihydro-5H-1,6-naphthyridine] |  | 331 nM | 71%
Cc1c(N2CCc3ncc(-c4cnn(CC5CC5)c4)cc3C2)nn2cnnc2c1C [Compound 21, 3-[1-(cyclopropylmethyl)pyrazol-4-yl]-6-(7,8-dimethyl-[1,2,4]triazolo[4,3-b]pyridazin-6-yl)-7,8-dihydro-5H-1,6-naphthyridine] |  | 162 nM | 82%
Cc1nn(C)cc1-c1cnc2c(c1)CN(c1nn3cnnc3c(C)c1C)CC2 [Compound 22, 3-(1,3-dimethylpyrazol-4-yl)-6-(7,8-dimethyl-[1,2,4]triazolo[4,3-b]pyridazin-6-yl)-7,8-dihydro-5H-1,6-naphthyridine] |  | 146 nM | 93%
Cc1nn(C)c(C)c1-c1cnc2c(c1)CN(c1nn3cnnc3c(C)c1C)CC2 [Compound 23, 6-(7,8-dimethyl-[1,2,4]triazolo[4,3-b]pyridazin-6-yl)-3-(1,3,5-trimethylpyrazol-4-yl)-7,8-dihydro-5H-1,6-naphthyridine] |  | 149 nM | 94%
